Measurements taken from US10118935B2, “Melampomagnolide B dimers” (priority 2014, dated 2018).

Key:
[1] = tested on: OVCAR-8; assay: NCI 60 cell line five dose, Ovarian Cancer
[2] = tested on: BT-549; assay: NCI 60 cell line five dose, Breast Cancer
[3] = tested on: MCF7; assay: NCI 60 cell line five dose, Breast Cancer
[4] = tested on: SNB-75; assay: NCI 60 cell line five dose, CNS Cancer
[5] = tested on: LOX IMVI; assay: NCI 60 cell line five dose, Melanoma
[6] = tested on: OVCAR-5; assay: NCI 60 cell line five dose, Ovarian Cancer
[7] = tested on: HCT-116; assay: NCI 60 cell line five dose, Colon Cancer
[8] = tested on: MALME-3M; assay: NCI 60 cell line five dose, Melanoma; conditions: MAL1ME-3M
[9] = tested on: MDA-MB-435; assay: NCI 60 cell line five dose, Melanoma
[10] = tested on: MDA-MB-468; assay: NCI 60 cell line five dose, Breast Cancer
[11] = tested on: SK-MEL-5; assay: NCI 60 cell line five dose, Melanoma
[12] = tested on: NCI-H23; assay: NCI 60 cell line five dose, Non-Small Cell Lung Cancer
[13] = tested on: RPMI-8226; assay: NCI 60 cell line five dose, Leukemia
[14] = tested on: OVCAR-3; assay: NCI 60 cell line five dose, Ovarian Cancer
[15] = tested on: A549/ATCC; assay: NCI 60 cell line five dose, Non-Small Cell Lung Cancer
[16] = tested on: NCI-H522; assay: as above
[17] = tested on: NCI-H322M; assay: as above
[18] = tested on: U251; assay: NCI 60 cell line five dose, CNS Cancer
[19] = tested on: SK-MEL-2; assay: NCI 60 cell line five dose, Melanoma
[20] = tested on: SW-620; assay: NCI 60 cell line five dose, Colon Cancer
[21] = tested on: MDA-MB-231/ATCC; assay: NCI 60 cell line five dose, Breast Cancer

C=C1C(=O)O[C@H]2[C@H]1CC/C(COC(=O)NCCCCNC(=O)OC/C1=C/CC[C@@]3(C)O[C@H]3[C@H]3OC(=O)C(=C)[C@@H]3CC1)=C\CC[C@@]1(C)O[C@@H]21 [JVM 3-54, bis(((1aR,7aS,10aS,10bS,E)-1a-Methyl-8-methylene-9-oxo-1a,2,3,6,7,7a,8,9,10a,10b-decahydrooxireno[2′,3′:9,10]cyclodeca[1,2-b]furan-5-yl)methyl)butane-1,4-diyldicarbamate]
GI50 [1]: 2.18 µM
TGI [1]: 8.26 µM
Percent Growth ([1]; Log10 Concentration −4.0): −78%
Percent Growth ([1]; Log10 Concentration −5.0): −7%
Percent Growth ([1]; Log10 Concentration −6.0): 79%
Percent Growth ([1]; Log10 Concentration −7.0): 99%
Percent Growth ([1]; Log10 Concentration −8.0): 99%
CC50 ([1]; read-out: LC50): 40.2 µM
GI50 [2]: 1.6 µM
TGI [2]: 3.63 µM
Percent Growth ([2]; Log10 Concentration −4.0): −98%
Percent Growth ([2]; Log10 Concentration −5.0): −62%
Percent Growth ([2]; Log10 Concentration −6.0): 79%
Percent Growth ([2]; Log10 Concentration −7.0): 91%
Percent Growth ([2]; Log10 Concentration −8.0): 100%
TGI [3]: 1.8 µM
Percent Growth ([3]; Log10 Concentration −4.0): −42%
Percent Growth ([3]; Log10 Concentration −5.0): −69%
Percent Growth ([3]; Log10 Concentration −6.0): 24%
Percent Growth ([3]; Log10 Concentration −7.0): 87%
Percent Growth ([3]; Log10 Concentration −8.0): 92%
GI50 [4]: 2.19 µM
TGI [4]: 16.5 µM
Percent Growth ([4]; Log10 Concentration −4.0): −65%
Percent Growth ([4]; Log10 Concentration −5.0): 18%
Percent Growth ([4]; Log10 Concentration −6.0): 67%
Percent Growth ([4]; Log10 Concentration −7.0): 64%
Percent Growth ([4]; Log10 Concentration −8.0): 70%
CC50 ([4]; read-out: LC50): 66.3 µM
GI50 [5]: 0.519 µM
TGI [5]: 1.92 µM
Percent Growth ([5]; Log10 Concentration −4.0): −74%
Percent Growth ([5]; Log10 Concentration −5.0): −84%
Percent Growth ([5]; Log10 Concentration −6.0): 33%
Percent Growth ([5]; Log10 Concentration −7.0): 93%
Percent Growth ([5]; Log10 Concentration −8.0): 93%
CC50 ([5]; read-out: LC50): 5.15 µM
GI50 [6]: 1.75 µM
TGI [6]: 3.69 µM
Percent Growth ([6]; Log10 Concentration −4.0): −72%
Percent Growth ([6]; Log10 Concentration −5.0): −67%
Percent Growth ([6]; Log10 Concentration −6.0): 87%
Percent Growth ([6]; Log10 Concentration −7.0): 92%
Percent Growth ([6]; Log10 Concentration −8.0): 95%
CC50 ([6]; read-out: LC50): 7.79 µM
GI50 [7]: 1.12 µM
TGI [7]: 2.63 µM
Percent Growth ([7]; Log10 Concentration −4.0): −88%
Percent Growth ([7]; Log10 Concentration −5.0): −78%
Percent Growth ([7]; Log10 Concentration −6.0): 56%
Percent Growth ([7]; Log10 Concentration −7.0): 85%
Percent Growth ([7]; Log10 Concentration −8.0): 99%
CC50 ([7]; read-out: LC50): 6.19 µM
GI50 [8]: 0.452 µM
TGI [8]: 2.19 µM
Percent Growth ([8]; Log10 Concentration −4.0): −64%
Percent Growth ([8]; Log10 Concentration −5.0): −56%
Percent Growth ([8]; Log10 Concentration −6.0): 29%
Percent Growth ([8]; Log10 Concentration −7.0): 90%
Percent Growth ([8]; Log10 Concentration −8.0): 95%
CC50 ([8]; read-out: LC50): 8.43 µM
GI50 [9]: 1.24 µM
TGI [9]: 3.41 µM
Percent Growth ([9]; Log10 Concentration −4.0): −97%
Percent Growth ([9]; Log10 Concentration −5.0): −53%
Percent Growth ([9]; Log10 Concentration −6.0): 60%
Percent Growth ([9]; Log10 Concentration −7.0): 82%
Percent Growth ([9]; Log10 Concentration −8.0): 100%
CC50 ([9]; read-out: LC50): 9.42 µM
GI50 [10]: 0.426 µM
TGI [10]: 2 µM
Percent Growth ([10]; Log10 Concentration −4.0): −69%
Percent Growth ([10]; Log10 Concentration −5.0): −59%
Percent Growth ([10]; Log10 Concentration −6.0): 26%
Percent Growth ([10]; Log10 Concentration −7.0): 91%
Percent Growth ([10]; Log10 Concentration −8.0): 92%
CC50 ([10]; read-out: LC50): 7.76 µM
GI50 [11]: 3.33 µM
TGI [11]: 11.8 µM
Percent Growth ([11]; Log10 Concentration −4.0): −85%
Percent Growth ([11]; Log10 Concentration −5.0): 7%
Percent Growth ([11]; Log10 Concentration −6.0): 98%
Percent Growth ([11]; Log10 Concentration −7.0): 100%
Percent Growth ([11]; Log10 Concentration −8.0): 97%
CC50 ([11]; read-out: LC50, SK-MEL-6): 41.4 µM
GI50 [12]: 2.18 µM
TGI [12]: 5.54 µM
Percent Growth ([12]; Log10 Concentration −4.0): −70%
Percent Growth ([12]; Log10 Concentration −5.0): 32%
Percent Growth ([12]; Log10 Concentration −6.0): 92%
Percent Growth ([12]; Log10 Concentration −7.0): 95%
Percent Growth ([12]; Log10 Concentration −8.0): 95%
CC50 ([12]; read-out: LC50): 30.4 µM
GI50 [13]: 0.547 µM
TGI [13]: 3.08 µM
Percent Growth ([13]; Log10 Concentration −4.0): −42%
Percent Growth ([13]; Log10 Concentration −5.0): −33%
Percent Growth ([13]; Log10 Concentration −6.0): 31%
Percent Growth ([13]; Log10 Concentration −7.0): 102%
Percent Growth ([13]; Log10 Concentration −8.0): 101%
CC50 ([13]; read-out: LC50): > 100 µM
GI50 [14]: 0.693 µM
TGI [14]: 2.01 µM
Percent Growth ([14]; Log10 Concentration −4.0): −96%
Percent Growth ([14]; Log10 Concentration −5.0): −93%
Percent Growth ([14]; Log10 Concentration −6.0): 40%
Percent Growth ([14]; Log10 Concentration −7.0): 101%
Percent Growth ([14]; Log10 Concentration −8.0): 101%
CC50 ([14]; read-out: LC50): 4.76 µM
GI50 [15]: 8.02 µM
TGI [15]: 23.1 µM
Percent Growth ([15]; Log10 Concentration −4.0): −79%
Percent Growth ([15]; Log10 Concentration −5.0): 45%
Percent Growth ([15]; Log10 Concentration −6.0): 99%
Percent Growth ([15]; Log10 Concentration −7.0): 99%
Percent Growth ([15]; Log10 Concentration −8.0): 100%
CC50 ([15]; read-out: LC50): 58.7 µM
GI50 [16]: 0.167 µM
TGI [16]: 0.375 µM
Percent Growth ([16]; Log10 Concentration −4.0): −71%
Percent Growth ([16]; Log10 Concentration −5.0): −75%
Percent Growth ([16]; Log10 Concentration −6.0): −60%
Percent Growth ([16]; Log10 Concentration −7.0): 82%
Percent Growth ([16]; Log10 Concentration −8.0): 95%
CC50 ([16]; read-out: LC50): 0.845 µM
GI50 [17]: 12.6 µM
TGI [17]: 25.8 µM
Percent Growth ([17]; Log10 Concentration −4.0): −94%
Percent Growth ([17]; Log10 Concentration −5.0): 66%
Percent Growth ([17]; Log10 Concentration −6.0): 104%
Percent Growth ([17]; Log10 Concentration −7.0): 100%
Percent Growth ([17]; Log10 Concentration −8.0): 100%
CC50 ([17]; read-out: LC50): 52.9 µM
GI50 [18]: 2.94 µM
TGI [18]: 9.83 µM
Percent Growth ([18]; Log10 Concentration −4.0): −95%
Percent Growth ([18]; Log10 Concentration −5.0): −1%
Percent Growth ([18]; Log10 Concentration −6.0): 95%
Percent Growth ([18]; Log10 Concentration −7.0): 101%
Percent Growth ([18]; Log10 Concentration −8.0): 99%
CC50 ([18]; read-out: LC50): 33.3 µM
GI50 [19]: 1.77 µM
TGI [19]: 4.89 µM
Percent Growth ([19]; Log10 Concentration −4.0): −67%
Percent Growth ([19]; Log10 Concentration −5.0): −35%
Percent Growth ([19]; Log10 Concentration −6.0): 78%
Percent Growth ([19]; Log10 Concentration −7.0): 89%
Percent Growth ([19]; Log10 Concentration −8.0): 101%
CC50 ([19]; read-out: LC50): 29.3 µM
GI50 [20]: 0.586 µM
TGI [20]: 2.04 µM
Percent Growth ([20]; Log10 Concentration −4.0): −72%
Percent Growth ([20]; Log10 Concentration −5.0): −79%
Percent Growth ([20]; Log10 Concentration −6.0): 35%
Percent Growth ([20]; Log10 Concentration −7.0): 98%
Percent Growth ([20]; Log10 Concentration −8.0): 100%
CC50 ([20]; read-out: LC50): 5.56 µM
GI50 [21]: 1.53 µM
TGI [21]: 3.24 µM
Percent Growth ([21]; Log10 Concentration −4.0): −85%
Percent Growth ([21]; Log10 Concentration −5.0): −76%
Percent Growth ([21]; Log10 Concentration −6.0): 79%
Percent Growth ([21]; Log10 Concentration −7.0): 104%
Percent Growth ([21]; Log10 Concentration −8.0): 103%
